Experimental data: patent US20070128265A1, “Regulation of cell proliferation and differentiation using topically applied peptides” (priority 2000, published 2007)

Key:
[1] = test system: psoriatic lesion; assay: One patient with chronic psoriasis: topical PTH (1-34) followed by calcipotriene cream; format: in vivo
From the text: One patient with chronic psoriasis received topically PTH (1-34) for two months. […] The patient returned two weeks later and, on the lesion treated with PTH (1-34) and the placebo lesion, received topically calcipotriene cream. […] Therefore, the combination therapy of PTH (1-34) followed by calcipotriene or other activated vitamin D compounds can be an effective therapeutic approach for treating psoriasis.

[2] = test system: hair follicles; assay: Macroscopic evaluation of hair cycle progression in depilated C57 BL/6 mice; format: in vivo; conditions: for hair growth progression (progression of hair follicles into anagen), macroscopic evaluation: 10 μg in 30 μl Novasome topically daily for seven days
Experimental: (§1) C57 BL/6 were purchased from Jackson Labs and were in their telogen state of hair development. The animals were depilated as previously described (1). Groups of six animals received daily a topical application of either 10 μg of PTH (1-34) in 30 μl of Novasome or their depilatated backs, 10 μg of PTH (7-34)/30 μl of Novasome, or 30 μl of Novasome. The animals were dosed daily for seven days. Macroscopic evaluation and tritiated thymidine and bromouridine analysis was made on day seven as previously described (1, 2, 3, 4).

[3] = test system: hair follicle cells; assay: BRDU staining of hair follicle cells in depilated C57 BL/6 mice; format: in vivo; conditions: 10 μg in 30 μl Novasome topically daily for seven days
Experimental: as §1

[4] = test system: epidermis; assay: Tritiated thymidine incorporation into epidermal DNA in SKH-1 hairless mice; format: in vivo
Experimental: SKH-1 hairless mice received topically daily for 60 days either 10 μg of PTH (1-34) formulated in Novasome A, PTH (7-34) formulated in Novasome A, or Novasome A without any PTH analog to serve as the control group. The animals received ^3H-tritiated thymidine for the evaluation of epidermal proliferation as previously described.

[5] = test system: psoriatic lesions; assay: Double blind placebo controlled trial in chronic psoriasis, clinical improvement of lesions; format: in vivo, patients; conditions: 20 μg/0.1 ml in Novasome topically, two months
From the text: Nine patients with chronic psoriasis were enrolled in a double blind placebo controlled trial. […] The percentage of clinical improvement of scaling, erythema, and induration for the lesion treated with placebo was 17.2, 15, and 30%, respectively. For the lesion treated with PTH (1-34), there was a marked improvement in scaling of 30.9%, erythema 34%, and induration 52%, respectively.

[6] = test system: epidermis of psoriatic lesions; assay: Skin biopsies of psoriatic lesions: hemotoxilin and eosin staining, immunohistochemistry for PCNA and transglutaminase; format: in vivo, patients; conditions: treated lesions compared to placebo treated lesions, two months
[7] = test system: mammalian cells; conditions: U.S. Pat. Nos. 5,527,772, 5,840,690 and 6,066,618; agonists or antagonists of PTH and PTHrP; cited from earlier work

Compound: C=C1/C(=C\C=C2/CCC[C@]3(C)[C@@H]([C@H](C)/C=C/[C@@H](O)C4CC4)CC[C@@H]23)C[C@@H](O)C[C@@H]1O [calcipotriene, reference compound]
- response of psoriatic lesion after two months of topical calcipotriene cream ([1]; lesion pretreated two months with PTH (1-34) or with Novasome placebo): no significant improvement

Compound: PTH (1-34): parathyroid hormone fragment (1-34), agonist peptide; tested topically formulated in Novasome A liposomes
- hair growth progression (progression of hair follicles into anagen), macroscopic evaluation [2]: decrease in hair growth progression
- BRDU staining of the hair follicles [3]: demonstrated a decrease
- decrease in DNA synthesis (proliferation) compared to the control group ([4]; 10 μg topically daily for 60 days in Novasome A, 3H-thymidine): 25%
- percentage of clinical improvement of erythema [5]: 34%
- percentage of clinical improvement of induration [5]: 52%
- percentage of clinical improvement of scaling [5]: 30.9%
- PCNA staining in skin biopsies [6]: restoration of the PCNA staining in the basal layer
- proliferation of the epidermis in skin biopsies [6]: marked decrease in the proliferation of the epidermis
- transglutaminase staining in skin biopsies [6]: restoration of transglutaminase staining in the upper granular layer
- response of psoriatic lesion ([1]; topical PTH (1-34) for two months): minimal response
- effect on proliferation and differentiation of mammalian cells [7]: inhibit proliferation and enhance differentiation of mammalian cells

Compound: PTH (3-34): parathyroid hormone fragment (3-34), agonist of PTH and PTHrP (SEIQLMHNLGKHLNSMERVEWLRKKLQDVHNF; Parathyroid hormone; UniProt P01270 34-65, looked up, fragment)
- effect on proliferation and differentiation of mammalian cells [7]: inhibit proliferation and enhance differentiation of mammalian cells

Compound: PTH (7-34): parathyroid hormone fragment (7-34), antagonist peptide; tested topically formulated in Novasome A liposomes (LMHNLGKHLNSMERVEWLRKKLQDVHNF; Parathyroid hormone Novasome A liposome formulation; UniProt P01270 38-65, looked up, fragment)
- hair growth progression (progression of hair follicles into anagen), macroscopic evaluation [2]: increase in the progression of the hair follicles into their proliferative anagen state
- increase in the anagen area ([2]; 10 μg topically daily for seven days, formulated in Novasome A): 155%
- BRDU staining of the hair follicles [3]: increase in BRDU staining of the hair follicle
- enhancement in DNA synthesis (proliferation) compared to the control group ([4]; 10 μg topically daily for 60 days in Novasome, 3H-thymidine in the epidermis): more than two fold enhancement
- effect on proliferation and differentiation of mammalian cells [7]: enhance the proliferation of mammalian cells

Compound: PTHrP (1-34): parathyroid related peptide fragment (1-34), agonist of PTH and PTHrP
- effect on proliferation and differentiation of mammalian cells [7]: inhibit proliferation and enhance differentiation of mammalian cells

Compound: PTHrP (7-34): parathyroid related peptide fragment (7-34), antagonist of PTH and PTHrP
- effect on proliferation and differentiation of mammalian cells [7]: enhance the proliferation of mammalian cells
